Source: patent US20240287082A1, “NEW BENZODIAZEPINE DERIVATIVES AS GABA A GAMMA1 PAM” (Hoffmann-La Roche Inc., priority 2021, published 2024)
Where two headings read alike, the source gives them in different places.

Key:
[1] = biological target: human GABAA α1β3γ2 receptor (Homo sapiens (Human), UniProt P14867+P18507); assay: Radioligand binding assay, competition for [3H]Flumazenil, γ2-containing GABAA subtype α1β3γ2
Method: The affinity of compounds at GABAA γ2 subunit-containing receptors was measured by competition for [^3H]Flumazenil (81.1 Ci/mmol; Roche) binding to HEK293F cells expressing human (transiently transfected) receptors of composition α1β3γ2.
Harvested pellets from HEK293F cells expressing the different GABAA γ2 receptor subtypes were resuspended in Mannitol Buffer pH 7.2-7.4 and processed as described above for the cells expressing the GABAA γ1 subunit-containing receptors.
Assays were incubated to equilibrium for 1 hour at 4° C. and harvested onto GF/C uni-filters (Packard) by filtration using a Packard harvester and washing with ice-cold wash buffer (50 mM Tris; pH 7.5). After anhydrousing, filter-retained radioactivity was detected by liquid scintillation counting. Ki values were calculated using Excel-Fit (Microsoft) and are the means of two determinations.

[2] = biological target: human GABAA α2β2γ1 receptor (Homo sapiens (Human), UniProt P47869+Q8N1C3); assay: Radioligand binding assay, competition for [3H]RO7239181, γ1-containing GABAA subtype α2β2γ1; conditions: for γ2/γ1 Selectivity Ratio: Ki α1β3γ2 (nM)/Ki α2β2γ1 (nM); for LogSel: Log[Ki α1β3γ2 (nM)/Ki α2β2γ1 (nM)]
Method: The affinity of compounds at GABAA γ1 subunit-containing receptors was measured by competition for [^3H]RO7239181 (67.3 Ci/mmol; Roche) binding to membranes from HEK293F cells (ThermoFisher R^79007) expressing human (transiently transfected) receptors of composition α5β2γ1, α2β2γ1, α1β2γ1.
Harvested pellets from HEK293F cells expressing the different GABAA receptor subtypes were resuspended in Mannitol Buffer pH 7.2-7.4 (Mannitol 0.29M, Triethylamine 10 mM, Acetic acid 10 mM, EDTA 1 mM plus protease inhibitors (20 tablets Complete, Roche Diagnostics Cat. No. 05 056 489 001 per liter)), washed two times and then resuspended at 1:10 to 1:15 dilution in the same buffer. Cell disruption was performed by stirring the suspension in a Parr vessel #4637 at 435 psi for 15 minutes, and then the suspensions were centrifuged at 1000×g for 15 minutes at 4° C. (Beckman Avanti J-HC: rotor JS-4.2). The supernatant (S1) was transferred in a 21 Schott flask and the pellet (P1) was resuspended with Mannitol Buffer up to 175 ml. The resuspended pellet was transferred into a 250 ml Corning centrifugal beaker and centrifuged at 1500×g for 10 minutes at 4° C. (Beckman Avanti J-HC: rotor JS-4.2). The supernatant (S1) was then transferred in the 21 Schott flask and the pellet was discarded. The supernatants (S1) were centrifuged in 500 ml Beckman polypropylene centrifugal beaker at 15 000×g for 30 minutes at 4° C. (Beckman Avanti J-20 XP: rotor JLA-10.500). The pellet (P2) was resuspended with Mannitol Buffer 1:1 and frozen at −80° C. The supernatant (S2) was centrifuged in 100 ml Beckman polypropylene centrifugal tubes at 48000×g for 50 minutes at 4° C. (Beckman Avanti J-20 XP: rotor JA-18). The supernatant (S3) was discarded and the pellet (P3) was resuspended with 1:1 Mannitol Buffer. The P2 and P3 protein concentration was determined with the BIORAD Standard assay method with bovine serum albumin as standard and measured on the NANO-Drop 1000. The membrane suspension was aliquots (500 μl per tube) and stored at −80° C. until required.
Membrane homogenates were resuspended and polytronised (Polytron PT1200E Kinematica AG) in Potassium Phosphate 10 mM, KCl 100 mM binding buffer at pH 7.4 to a final assay concentration determined with a previous experiment.
Assays were incubated to equilibrium for 1 hour at 4° C. and then, membranes were filtered onto unifilter (96-well white microplate with bonded GF/C filters preincubated 20-50 minutes in 0.3% Polyethylenimine) with a Filtermate 196 harvester (Packard BioScience) and washed 4 times with cold Potassium Phosphate 10 mM pH 7.4, KCl 100 mM binding buffer. After anhydrousing, filter-retained radioactivity was detected by liquid scintillation counting. Ki values were calculated using Excel-Fit (Microsoft) and are the means of two determinations.

h-GABA-A α2β2γ1 = h-GABA-A α2β2γ1 (Homo sapiens (Human), UniProt P47869+Q8N1C3); assay: Two-electrode voltage clamp electrophysiology in Xenopus oocytes expressing GABAA receptors, modulation of GABA EC20 current; format: cell-based; conditions: for Efficacy (GABA) %: % modulation of GABA EC20 = 100*(Fold increase−1), compound at 30-fold Ki α2β2γ1; for Fold increase h-GABA-A α2β2γ1 oocyte @ 30-fold Ki: Xenopus oocytes, GABA EC20, test compound at approx. 30-fold its Ki α2β2γ1
Method: Xenopus laevis oocytes at maturation stages V-VI were used for the expression of cloned mRNA encoding GABAA receptor subunits. Oocytes ready for RNA micro-injection were bought from Ecocyte, Castrop-Rauxel, Germany and stored in modified Barth's medium (composition in mM: NaCl 88, KCl 1, NaHCO3 2.4, HEPES 10, MgSO4 0.82, CaNO3 0.33, CaCl2 0.33, pH=7.5) at 20° C. until the experiment.
Oocytes were plated in 96-well plates for microinjection using the Roboinject automated instrument (MultiChannelSystems, Reutlingen, Germany). Approximately 50 nL of an aqueous solution containing the RNA transcripts for the subunits of the desired GABAA receptor subtype was injected into each oocyte. […] Oocytes were kept in modified Barth's medium (composition in mM: NaCl 88, KCl 1, NaHCO3 […], HEPES 10, MgSO4 0.82, CaNO3 0.33, CaCl2 0.33, pH=7.5) at 20° C. until the experiment.
Electrophysiological experiments were performed using the Roboocyte instrument (MultiChannelSystems, Reutlingen, Germany) on days 3 to 5 after the micro-injection of mRNA. During the experiment the oocytes were constantly superfused by a solution containing (in mM) NaCl 90, KCl 1, HEPES 5, MgCl2 1, CaCl2 1 (pH 7.4). Oocytes were impaled by two glass microelectrodes (resistance: 0.5-0.8 MΩ) which were filled with a solution containing KCl 1M+K-acetate 1.5 M and voltage-clamped to −80 mV. The recordings were performed at room temperature using the Roboocyte two-electrode voltage clamp system (Multichannelsystem). After an initial equilibration period of 1.5 min GABA was added for 1.5 min at a concentration evoking approximately 20% of a maximal current response (EC20). After another rest interval of 2.5 min GABA was again added evoking a response of similar amplitude and shape. […] Current traces were recorded at a digitization rate of 10 Hz during and shortly before and after the GABA application.
Each compound and concentration was tested on at least 3 oocytes. Different oocytes were used for different compound concentrations.
For the analysis, the digitized current traces of the first and second GABA response were superimposed and, if necessary, rescaled to equal maximal amplitudes. The ratio between the two responses during the time interval of test compound application was calculated point by point. The extremum of the resulting “ratio trace” was taken as the efficacy (“Fold increase”) of the compound expressed as “% modulation of GABA EC20” (100*(Fold increase−1)).

[3] = HEK293F cell membranes, [3H]Flumazenil 1 nM, mean of two determinations, read-out: Ki h-GABAA α1β3γ2
[4] = Table 2, membranes of HEK293F cells, [3H]RO7239181, read-out: Ki h-GABAA α2β2γ1
[5] = membranes of HEK293F cells, [3H]RO7239181 20-30 nM, mean of two determinations, read-out: Ki h-GABAA α2β2γ1
[6] = read-out: Ki h-GABAA α2β2γ1, Table 2, membranes of HEK293F cells, [3H]RO7239181

SMILES	Ki [1, 3] [nM]	γ2/γ1 Selectivity Ratio [2]	LogSel [2]	Ki [2, 4] [nM]	Ki [2, 5] [nM]	Efficacy (GABA) % (h-GABA-A α2β2γ1) [%]	Fold increase h-GABA-A α2β2γ1 oocyte @ 30-fold Ki (h-GABA-A α2β2γ1)	Ki [1] [nM]	Ki [2] [nM]	Ki [2, 6] [nM]
CCOCCc1cn2c(nc1=O)[C@H](C)N=C(c1c(F)cccc1F)c1c-2ccc(C(F)(F)F)c1Cl [Example 20, (5S)-8-chloro-7-(2,6-difluorophenyl)-2-(2-ethoxyethyl)-5-methyl-9-(trifluoromethyl)-5H-pyrimido[1,2-a][1,4]benzodiazepin-3-one]	8880	88.1	1.95	101	101	113	2.13	–	–	–
Cc1cn2c(nc1=O)[C@H](C)N=C(c1c(F)cccc1F)c1c-2ccc(C(F)(F)F)c1Cl [Example 9, (5S)-8-chloro-7-(2,6-difluorophenyl)-2,5-dimethyl-9-(trifluoromethyl)-5H-pyrimido[1,2-a][1,4]benzodiazepin-3-one]	–	209.4	2.32	–	–	99	1.99	5950	28.4	28.4
CCOCCc1cn2c(nc1=O)CN=C(c1c(F)cccc1F)c1c-2ccc(Cl)c1Cl [Example 24, 8,9-dichloro-7-(2,6-difluorophenyl)-2-(2-ethoxyethyl)-5H-pyrimido[1,2-a][1,4]benzodiazepin-3-one]	1820	60.1	1.78	30.3	30.3	120	2.20	–	–	–
O=c1ccn2c(n1)CN=C(c1ncccc1F)c1c-2ccc(Cl)c1Cl [Example 3, 8,9-dichloro-7-(3-fluoro-2-pyridyl)-5H-pyrimido[1,2-a][1,4]benzodiazepin-3-one]	–	19.6	1.29	–	–	192	2.92	2190	112	112
CNC(=O)c1cn2c(nc1=O)[C@H](C)N=C(c1c(F)cccc1F)c1c-2ccc(C(F)(F)F)c1Cl [Example 27, (5S)-8-chloro-7-(2,6-difluorophenyl)-N,5-dimethyl-3-oxo-9-(trifluoromethyl)-5H-pyrimido[1,2-a][1,4]benzodiazepine-2-carboxamide]	9010	292.9	2.47	30.8	30.8	113	2.13	–	–	–
C[C@@H]1N=C(c2c(F)cccc2F)c2c(ccc(Br)c2Cl)-n2ccc(=O)nc21 [Example 13, (5S)-9-bromo-8-chloro-7-(2,6-difluorophenyl)-5-methyl-5H-pyrimido[1,2-a][1,4]benzodiazepin-3-one]	–	53.3	1.73	–	–	70	1.7	607	11.4	11.4
CCc1cn2c(nc1=O)[C@H](C)N=C(c1c(F)cccc1F)c1c-2ccc(C(F)(F)F)c1Cl [Example 11, (5S)-8-chloro-7-(2,6-difluorophenyl)-2-ethyl-5-methyl-9-(trifluoromethyl)-5H-pyrimido[1,2-a][1,4]benzodiazepin-3-one]	–	151.9	2.18	–	–	70	1.7	6090	40.1	40.1
CCO/C=C/c1cn2c(nc1=O)CN=C(c1c(F)cccc1F)c1c-2ccc(C(F)(F)F)c1Cl [Example 25, 8-chloro-7-(2,6-difluorophenyl)-2-[(E)-2-ethoxyvinyl]-9-(trifluoromethyl)-5H-pyrimido[1,2-a][1,4]benzodiazepin-3-one]	14700	306.4	2.49	47.9	47.9	81	1.81	–	–	–
O=c1ccn2c(n1)CN=C(c1ccccc1F)c1c-2ccc(Cl)c1Cl [Example 1, 8,9-dichloro-7-(2-fluorophenyl)-5H-pyrimido[1,2-a][1,4]benzodiazepin-3-one]	–	12.4	1.09	–	–	92	1.92	716	57.9	57.9
C[C@@H]1N=C(c2c(F)cccc2F)c2c(ccc(C(F)(F)F)c2Cl)-n2cc(C(=O)NC3CC3)c(=O)nc21 [Example 28, (5S)-8-chloro-N-cyclopropyl-7-(2,6-difluorophenyl)-5-methyl-3-oxo-9-(trifluoromethyl)-5H-pyrimido[1,2-a][1,4]benzodiazepine-2-carboxamide]	11200	338.4	2.53	33	33	35	1.35	–	–	–
